The values that follow come from ChEMBL document CHEMBL1148870, “Novel inhibitors of VEGF receptors-1 and -2 based on azole-5-carboxamide templates” (Bioorg Med Chem Lett, 2007).

Data set [1] has as its target Epidermal growth factor receptor (Homo sapiens) (UniProt P00533). The experiment in a line: Inhibition of ErbB1 at 10 uM. Also on record: scale not given: the % may be the effect or the level left.
Data set [2] deals with RAF proto-oncogene serine/threonine-protein kinase (Homo sapiens) (UniProt P04049). Nature of the data set: Inhibition of Raf1 at 10 uM. Also on record: scale not given: the % may be the effect or the level left.
The species entered for data set [3] is Homo sapiens. Nature of the data set: Inhibition of PKA at 10 uM. Details: scale not given: the % may be the effect or the level left.
Data set [4] addresses Vascular endothelial growth factor receptor 1 (Homo sapiens, UniProt P17948). Nature of the data set: Inhibition of VEGFR1 assessed as inhibition of phosphorylation in presence of 2 uM ATP by HTRF assay. The data set is classed as functional. (In general: In TR-FRET formats the signal depends on donor and acceptor labels being close together.)
Data set [5] addresses T1, Vascular endothelial growth factor receptor 2 (Homo sapiens, UniProt P35968). The experiment in a line: Inhibition of VEGFR2 assessed as inhibition of phosphorylation in human 293 cells by cell-based ELISA. In kind it is functional, HEK293. In general terms: ELISA stands for enzyme-linked immunosorbent assay.
Data set [6] concerns the target Receptor-type tyrosine-protein kinase FLT3 (Homo sapiens) (UniProt P36888). The experiment in a line: Inhibition of Flt3 at 10 uM. Details: scale not given: the % may be the effect or the level left.
Data set [7] is filed under the species Homo sapiens. Nature of the data set: Inhibition of InR at 10 uM. Details: scale not given: the % may be the effect or the level left.
For data set [8], the target named is Insulin-like growth factor 1 receptor (Homo sapiens) (UniProt P08069). The experiment in a line: Inhibition of IGF1R at 10 uM. Details: scale not given: the % may be the effect or the level left.
Data set [9] deals with Fibroblast growth factor receptor 1 (Homo sapiens) (UniProt P11362). The experiment in a line: Inhibition of FGFR1 at 10 uM. Also on record: scale not given: the % may be the effect or the level left.
For data set [10], the target named is Glycogen synthase kinase-3 beta (Homo sapiens) (UniProt P49841). Nature of the data set: Inhibition of GSK3-beta at 10 uM. Details: scale not given: the % may be the effect or the level left.
Data set [11] addresses T1, Vascular endothelial growth factor receptor 2. Nature of the data set: Displacement of [32P]ATP from human VEGFR2 after 45 mins.
Data set [12] has as its target RAC-alpha serine/threonine-protein kinase (Homo sapiens) (UniProt P31749). The experiment in a line: Inhibition of PKB/Akt at 10 uM. Details: scale not given: the % may be the effect or the level left.
Data set [13] deals with Vascular endothelial growth factor receptor 3 (Homo sapiens) (UniProt P35916). Nature of the data set: Inhibition of Flt4 at 10 uM. Details: scale not given: the % may be the effect or the level left.
Another data set relates to Caco-2. The experiment in a line: Passive diffusion assessed as absorption potential across Caco-2 cell membrane. The data set is classed as ADME, cell-based. Conditions: human.
For data set [14], the species on record is Homo sapiens. Nature of the data set: Inhibition of Cdk1 at 10 uM. Details: scale not given: the % may be the effect or the level left.
For data set [15], the target named is T1, Vascular endothelial growth factor receptor 2. Nature of the data set: Inhibition of VEGFR2 assessed as inhibition of phosphorylation in presence of 2 uM ATP by HTRF assay. The data set is classed as functional.
Data set [16] has as its target Cyclin-dependent kinase 2 (Homo sapiens) (UniProt P24941). Nature of the data set: Inhibition of Cdk2 at 10 uM. Also on record: scale not given: the % may be the effect or the level left.
The species entered for data set [17] is Homo sapiens. Nature of the data set: Inhibition of bcr-Abl at 10 uM. Also on record: scale not given: the % may be the effect or the level left.
The target in data set [18] is Receptor tyrosine-protein kinase erbB-2 (Homo sapiens) (UniProt P04626). The experiment in a line: Inhibition of ErbB2/Her2 at 10 uM. Details: scale not given: the % may be the effect or the level left.
The target of data set [19] is Hepatocyte growth factor receptor (Homo sapiens) (UniProt P08581). The experiment in a line: Inhibition of cMet at 10 uM. Details: scale not given: the % may be the effect or the level left.
The nature of data set [20]: Passive diffusion assessed as intrinsic permeability across Caco-2 cell membrane. The data set is classed as ADME, cell-based. Conditions: human, read-out: permeability (converted). For orientation: Caco-2 cells form a polarised layer with tight junctions and transporters.
The subject of the next data set is DLD-1. The experiment in a line: Cytotoxicity against human DLD1 cells after 24 hrs. Conditions: DLD-1, 24 h. In kind it is functional.
Another data set has as its system HEK293. Nature of the data set: Cytotoxicity against HEK293 cells after 24 hrs. In kind it is functional, cell-based. Conditions: Homo sapiens.
The test system of the next data set is DU-145. Nature of the data set: Cytotoxicity against human DU145 cells after 24 hrs. In kind it is functional. Conditions: DU-145, 24 h.
A further data set deals with A-431. Nature of the data set: Cytotoxicity against human A431 cells after 24 hrs. The data set is classed as functional. Conditions: A-431, 24 h.

Calls of active or inactive are those of the source. No cut-off for these calls is given here.

RAF proto-oncogene serine/threonine-protein kinase (Homo sapiens), sequence (P04049 whole entry): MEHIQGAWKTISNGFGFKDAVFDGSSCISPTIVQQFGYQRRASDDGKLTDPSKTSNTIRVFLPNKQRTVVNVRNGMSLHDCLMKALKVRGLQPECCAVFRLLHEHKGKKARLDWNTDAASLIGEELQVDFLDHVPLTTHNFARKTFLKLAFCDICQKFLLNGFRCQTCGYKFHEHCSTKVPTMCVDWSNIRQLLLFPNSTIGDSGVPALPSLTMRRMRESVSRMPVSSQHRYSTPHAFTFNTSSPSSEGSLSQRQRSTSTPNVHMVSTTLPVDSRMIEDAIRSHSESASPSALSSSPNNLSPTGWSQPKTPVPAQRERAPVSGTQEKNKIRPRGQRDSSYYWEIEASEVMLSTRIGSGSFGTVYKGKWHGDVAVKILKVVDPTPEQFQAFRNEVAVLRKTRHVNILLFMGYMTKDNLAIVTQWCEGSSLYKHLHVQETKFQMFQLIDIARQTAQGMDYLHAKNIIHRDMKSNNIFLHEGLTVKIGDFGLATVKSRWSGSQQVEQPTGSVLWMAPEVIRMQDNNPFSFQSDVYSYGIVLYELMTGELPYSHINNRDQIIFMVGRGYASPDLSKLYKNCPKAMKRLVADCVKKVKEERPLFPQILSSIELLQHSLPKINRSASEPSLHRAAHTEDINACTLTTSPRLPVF
RAC-alpha serine/threonine-protein kinase (Homo sapiens), sequence (P31749 whole entry): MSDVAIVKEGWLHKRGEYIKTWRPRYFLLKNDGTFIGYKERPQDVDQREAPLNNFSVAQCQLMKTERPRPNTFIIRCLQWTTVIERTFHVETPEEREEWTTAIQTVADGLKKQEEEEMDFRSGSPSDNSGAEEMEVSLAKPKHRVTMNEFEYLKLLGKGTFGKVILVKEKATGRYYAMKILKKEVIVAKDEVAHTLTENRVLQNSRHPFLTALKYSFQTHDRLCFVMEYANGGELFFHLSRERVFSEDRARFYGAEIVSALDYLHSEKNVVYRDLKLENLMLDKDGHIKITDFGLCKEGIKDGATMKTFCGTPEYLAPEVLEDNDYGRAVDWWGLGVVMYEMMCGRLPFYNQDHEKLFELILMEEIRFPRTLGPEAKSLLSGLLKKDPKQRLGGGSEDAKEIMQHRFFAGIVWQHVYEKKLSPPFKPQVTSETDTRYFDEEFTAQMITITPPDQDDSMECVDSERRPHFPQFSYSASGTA
Insulin-like growth factor 1 receptor (Homo sapiens), sequence (P08069 31-736 limits assumed): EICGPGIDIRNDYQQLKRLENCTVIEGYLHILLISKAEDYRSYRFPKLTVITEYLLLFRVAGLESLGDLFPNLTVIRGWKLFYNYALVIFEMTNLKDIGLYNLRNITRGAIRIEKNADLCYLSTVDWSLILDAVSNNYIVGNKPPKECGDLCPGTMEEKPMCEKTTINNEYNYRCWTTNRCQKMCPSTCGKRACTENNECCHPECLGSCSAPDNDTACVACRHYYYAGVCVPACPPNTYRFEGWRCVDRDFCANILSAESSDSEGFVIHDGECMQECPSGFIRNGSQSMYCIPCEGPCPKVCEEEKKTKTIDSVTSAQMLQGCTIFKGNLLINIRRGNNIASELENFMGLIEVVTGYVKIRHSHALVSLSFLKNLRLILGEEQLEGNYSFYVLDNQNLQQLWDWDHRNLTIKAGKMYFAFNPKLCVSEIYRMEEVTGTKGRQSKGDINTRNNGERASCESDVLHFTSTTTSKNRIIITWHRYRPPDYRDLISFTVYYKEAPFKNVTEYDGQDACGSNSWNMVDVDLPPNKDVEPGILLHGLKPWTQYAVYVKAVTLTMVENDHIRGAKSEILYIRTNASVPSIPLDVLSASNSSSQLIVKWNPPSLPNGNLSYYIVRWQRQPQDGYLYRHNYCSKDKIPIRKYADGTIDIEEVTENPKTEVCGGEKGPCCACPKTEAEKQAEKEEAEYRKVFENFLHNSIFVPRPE
Insulin-like growth factor 1 receptor (Homo sapiens), sequence (P08069 741-1367 limits assumed): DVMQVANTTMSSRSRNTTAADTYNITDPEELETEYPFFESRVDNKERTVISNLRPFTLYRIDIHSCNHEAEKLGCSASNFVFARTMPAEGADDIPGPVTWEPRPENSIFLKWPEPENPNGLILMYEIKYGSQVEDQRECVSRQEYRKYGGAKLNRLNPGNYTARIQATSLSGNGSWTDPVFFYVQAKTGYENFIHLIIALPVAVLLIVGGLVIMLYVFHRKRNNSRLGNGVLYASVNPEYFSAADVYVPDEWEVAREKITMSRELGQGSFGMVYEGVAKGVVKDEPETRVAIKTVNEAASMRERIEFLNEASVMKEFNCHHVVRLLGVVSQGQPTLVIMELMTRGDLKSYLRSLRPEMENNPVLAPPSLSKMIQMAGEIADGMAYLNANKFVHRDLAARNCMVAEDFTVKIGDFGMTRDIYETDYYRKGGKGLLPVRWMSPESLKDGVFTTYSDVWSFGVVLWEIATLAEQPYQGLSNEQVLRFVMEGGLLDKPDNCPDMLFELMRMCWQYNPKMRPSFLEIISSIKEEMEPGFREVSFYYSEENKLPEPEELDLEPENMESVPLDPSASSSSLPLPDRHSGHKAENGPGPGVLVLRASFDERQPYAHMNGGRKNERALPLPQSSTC
Vascular endothelial growth factor receptor 1, sequence (P17948 whole entry): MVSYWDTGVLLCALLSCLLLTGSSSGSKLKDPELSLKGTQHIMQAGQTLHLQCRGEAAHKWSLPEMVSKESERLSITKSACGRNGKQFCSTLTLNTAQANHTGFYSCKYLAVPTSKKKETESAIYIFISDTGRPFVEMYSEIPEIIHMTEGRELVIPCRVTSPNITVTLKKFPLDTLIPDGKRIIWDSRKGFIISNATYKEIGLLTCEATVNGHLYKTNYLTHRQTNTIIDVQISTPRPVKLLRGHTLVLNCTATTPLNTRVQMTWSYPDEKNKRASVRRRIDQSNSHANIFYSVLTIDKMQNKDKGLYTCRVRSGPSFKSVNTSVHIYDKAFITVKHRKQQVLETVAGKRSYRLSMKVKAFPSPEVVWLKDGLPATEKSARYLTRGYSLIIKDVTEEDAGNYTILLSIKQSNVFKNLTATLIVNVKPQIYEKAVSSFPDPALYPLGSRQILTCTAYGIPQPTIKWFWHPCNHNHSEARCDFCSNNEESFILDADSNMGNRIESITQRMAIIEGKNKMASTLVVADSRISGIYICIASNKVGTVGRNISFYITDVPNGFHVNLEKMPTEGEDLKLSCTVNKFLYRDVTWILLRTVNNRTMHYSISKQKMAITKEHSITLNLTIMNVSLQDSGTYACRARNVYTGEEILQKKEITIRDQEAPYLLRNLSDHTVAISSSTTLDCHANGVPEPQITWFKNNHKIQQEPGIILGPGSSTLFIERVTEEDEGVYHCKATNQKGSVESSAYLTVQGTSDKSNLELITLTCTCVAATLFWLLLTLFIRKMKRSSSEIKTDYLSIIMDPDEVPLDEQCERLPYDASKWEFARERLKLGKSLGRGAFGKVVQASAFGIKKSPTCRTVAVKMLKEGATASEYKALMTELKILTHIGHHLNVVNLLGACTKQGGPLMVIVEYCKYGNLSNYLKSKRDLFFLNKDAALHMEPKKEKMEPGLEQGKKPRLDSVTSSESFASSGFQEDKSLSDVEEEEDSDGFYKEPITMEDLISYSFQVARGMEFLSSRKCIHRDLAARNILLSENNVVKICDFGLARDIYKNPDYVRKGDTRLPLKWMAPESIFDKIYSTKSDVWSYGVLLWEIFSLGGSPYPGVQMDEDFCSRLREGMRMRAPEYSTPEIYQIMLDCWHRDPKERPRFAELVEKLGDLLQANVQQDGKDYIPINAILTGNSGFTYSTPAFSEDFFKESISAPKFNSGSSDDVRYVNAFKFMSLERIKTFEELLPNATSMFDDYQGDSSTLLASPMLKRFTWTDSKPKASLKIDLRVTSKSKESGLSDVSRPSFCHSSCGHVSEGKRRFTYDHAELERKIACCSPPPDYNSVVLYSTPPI
Fibroblast growth factor receptor 1 (Homo sapiens), sequence (P11362 22-822 limits assumed): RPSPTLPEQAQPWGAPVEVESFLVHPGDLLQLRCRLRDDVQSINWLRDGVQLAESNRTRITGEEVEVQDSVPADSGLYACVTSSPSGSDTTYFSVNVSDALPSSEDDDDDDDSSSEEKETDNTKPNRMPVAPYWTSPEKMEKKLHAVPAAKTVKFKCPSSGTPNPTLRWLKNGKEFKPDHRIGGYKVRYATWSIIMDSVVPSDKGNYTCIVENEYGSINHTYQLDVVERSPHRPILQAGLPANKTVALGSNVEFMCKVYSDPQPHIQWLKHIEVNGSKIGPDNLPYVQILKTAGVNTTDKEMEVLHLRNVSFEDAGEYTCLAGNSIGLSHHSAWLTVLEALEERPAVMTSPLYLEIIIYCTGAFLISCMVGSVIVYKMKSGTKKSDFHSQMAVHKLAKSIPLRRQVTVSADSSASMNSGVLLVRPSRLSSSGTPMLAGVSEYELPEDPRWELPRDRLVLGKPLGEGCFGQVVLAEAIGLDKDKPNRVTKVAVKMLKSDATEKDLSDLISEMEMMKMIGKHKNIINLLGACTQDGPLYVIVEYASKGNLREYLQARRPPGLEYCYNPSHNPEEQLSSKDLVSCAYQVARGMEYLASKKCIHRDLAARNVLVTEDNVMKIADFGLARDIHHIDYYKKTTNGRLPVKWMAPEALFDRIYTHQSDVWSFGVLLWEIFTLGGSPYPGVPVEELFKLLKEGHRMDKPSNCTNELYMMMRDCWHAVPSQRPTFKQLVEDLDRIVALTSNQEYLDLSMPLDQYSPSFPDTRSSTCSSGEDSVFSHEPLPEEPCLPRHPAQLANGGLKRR
Glycogen synthase kinase-3 beta (Homo sapiens), sequence (P49841 whole entry, looked up): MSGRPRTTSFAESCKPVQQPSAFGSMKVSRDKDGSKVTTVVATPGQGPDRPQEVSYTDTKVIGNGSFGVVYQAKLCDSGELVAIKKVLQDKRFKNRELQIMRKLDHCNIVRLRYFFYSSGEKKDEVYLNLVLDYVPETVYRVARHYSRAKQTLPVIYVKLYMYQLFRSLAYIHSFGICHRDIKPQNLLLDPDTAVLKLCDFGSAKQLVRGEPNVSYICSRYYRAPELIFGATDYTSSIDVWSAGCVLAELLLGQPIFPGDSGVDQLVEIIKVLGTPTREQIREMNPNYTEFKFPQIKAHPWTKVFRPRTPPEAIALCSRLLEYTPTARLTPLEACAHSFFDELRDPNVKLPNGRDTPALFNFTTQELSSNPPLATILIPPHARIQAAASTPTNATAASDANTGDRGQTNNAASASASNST

Usually IC50 stands for the concentration that gives 50% inhibition. The term Ki denotes the dissociation constant of the complex between target and ligand, obtained from inhibition or displacement. For the molecule `O=C(Nc1cccc(OC(F)(F)Cl)c1)c1ccnn1CCc1ccncc1`, the Activity in data set [1] was less than 30%; in [2], greater than 30%; in the data set filed under Homo sapiens [3], greater than 30%; in data set [6], greater than 30%; in the data set filed under Homo sapiens [7] it was greater than 30%; in data set [8] it was greater than 30%. The Activity in [9] was greater than 30%; in data set [10], greater than 30%; in data set [12], greater than 30%; in [13], greater than 30%; in the data set with Caco-2 it was “Active”; in the data set filed under Homo sapiens [14], greater than 30%. Besides, the Activity (in [16]; in the data set listed under Homo sapiens [17]; in data set [18]; in data set [19]) was greater than 30% throughout. For the same molecule, the IC50 in [4] amounted to 320 nM; in [5], 21 nM. For the same molecule, the results for the Ki in data set [11] and in [15] were 90 nM and 70 nM, respectively. Also, the Papp in data set [20] was 4.73 ×10⁻⁶ cm/s.
With `O=C(Nc1ccc(Cl)cc1)c1ccnn1CCc1ccncc1`, the Activity in [1] is less than 30%; in data set [2] it was greater than 30%; in the data set filed under Homo sapiens [3], greater than 30%; in [6], greater than 30%; in the data set listed under Homo sapiens [7] it was greater than 30%; in [8], greater than 30%. Also, the Activity in [9] is greater than 30%; in [10] it was greater than 30%; in data set [12] it was greater than 30%; in [13] it was greater than 30%; with Caco-2 it was “Active”; in the data set filed under Homo sapiens [14], greater than 30%. Also, the Activity (in [16]; in the data set listed under Homo sapiens [17]; in [18]; in [19]) was greater than 30% throughout. Moreover, the IC50 in [4] turned out to be 97 nM; in data set [5] it was 90 nM; in data set [15], 77 nM. Moreover, the Ki in data set [11] was found to be 90 nM; in data set [15] it was 110 nM. Also, the Papp in data set [20] is 6.95 ×10⁻⁶ cm/s.
One may read the GI50 as the concentration that inhibits growth by half. For the molecule `COc1ccc(NC(=O)c2ccnn2CCc2ccncc2)cc1OC`, the Activity in [1] was less than 30%; in [2], greater than 30%; in the data set filed under Homo sapiens [3] it was greater than 30%; in [6], greater than 30%; in the data set listed under Homo sapiens [7], greater than 30%; in data set [8], greater than 30%. For the same molecule, the Activity (in [9]; in [10]; in data set [12]; in data set [13]; in the data set listed under Homo sapiens [14]; in data set [16]) was greater than 30% in each case. The Activity (in the data set filed under Homo sapiens [17]; in [18]; in data set [19]) was greater than 30% each time. For the same molecule, the figures for the IC50 in [4], in data set [5] and in data set [15] were 1230 nM, 90 nM and 440 nM, respectively. Moreover, the figures for the GI50 in the data set on DLD-1, in the data set with DU-145 and in the data set on A-431 were 125 nM, 220 nM and 50 nM, respectively. For the same molecule, in the data set with HEK293, the outcome was Active.
